Measurements published in patent publication US10273248B2, “Glucose uptake inhibitors” (Kadmon Corporation LLC, priority 2015, dated 2019).

Tested on: glycolysis in HT1080 cells
Test: Glycolysis assay: oligomycin plus compound, cellular ATP by Cell Titer Glo
Format: cell-based
Conditions: Homo sapiens, HT-1080, 1 h, 10 μM oligomycin, one hour, class symbols
From the text: Therefore, an assay was developed that utilizes the combination of the glucose uptake inhibitors disclosed herein with oligomycin, a well-characterized inhibitor of ATP synthase. Because oligomycin inhibits ATP derived from oxidative phosphorylation, any remaining ATP production is derived from glycolysis. By reading out cellular ATP levels using the Promega Cell Titer Glo kit, the extent of glycolysis inhibition by the glucose uptake inhibitors disclosed herein can be assessed. […] Utilizing this experimental set-up, the IC50 of glycolysis inhibition for each compound can be determined.
Determination of Glucose Uptake/GLUT Activity (Glycolysis Assay):
HT1080 cells (as well as other cell types) were plated to confluency in 96-well plates. Cells were exposed to the combination of 10 μM Oligomycin (to block mitochondrial-derived ATP) and the glucose uptake inhibitors disclosed herein for one-hour, after which glycolytically-derived ATP was measured with the Cell Titer-Glo assay kit (Promega). Dose-response curves of the glucose uptake inhibitors disclosed herein were used to determine the IC50 for GLUT activity.

SMILES	IC50
CCC(CC)NC(=O)COc1cc(F)cc(-c2nc3c(c(Nc4ccc(-c5cn[nH]c5)cc4)n2)COC3)c1 [Example 88, 2-(3-(4-((4-(1H-pyrazol-4-yl)phenyl)amino)-5,7-dihydrofuro[3,4-d]pyrimidin-2-yl)-5-fluorophenoxy)-N-(pentan-3-yl)acetamide]	501 to 1000 nM
O=C(COc1cccc(-c2nc3c(c(Nc4ccc(-c5cn[nH]c5)cc4)n2)COC3)c1)NC1CCCCC1 [Example 89, 2-(3-(4-((4-(1H-pyrazol-4-yl)phenyl)amino)-5,7-dihydrofuro[3,4-d]pyrimidin-2-yl)phenoxy)-N-cyclohexylacetamide]	10 to 100 nM
CC(NC(=O)COc1cccc(-c2nc3c(c(Nc4ccc(-c5cn[nH]c5)cc4)n2)COC3)c1)C(F)(F)F (stereo not shown) [Example 90, 2-(3-(4-((4-(1H-pyrazol-4-yl)phenyl)amino)-5,7-dihydrofuro[3,4-d]pyrimidin-2-yl)phenoxy)-N-(1,1,1-trifluoropropan-2-yl)acetamide]	10 to 100 nM
Cc1ccc(CNc2cccc(-c3nc4c(c(Nc5ccc(-c6cn[nH]c6)cc5)n3)COC4)c2)cn1 [Example 91, N-(4-(1H-pyrazol-4-yl)phenyl)-2-(3-(((6-methylpyridin-3-yl)methyl)amino)phenyl)-5,7-dihydrofuro[3,4-d]pyrimidin-4-amine]	> 1000 nM
Fc1cncc(CNc2cccc(-c3nc4c(c(Nc5ccc(-c6cn[nH]c6)cc5)n3)COC4)c2)c1 [Example 92, N-(4-(1H-pyrazol-4-yl)phenyl)-2-(3-(((5-fluoropyridin-3-yl)methyl)amino)phenyl)-5,7-dihydrofuro[3,4-d]pyrimidin-4-amine]	501 to 1000 nM
Clc1cncc(CNc2cccc(-c3nc4c(c(Nc5ccc(-c6cn[nH]c6)cc5)n3)COC4)c2)c1 [Example 93, N-(4-(1H-pyrazol-4-yl)phenyl)-2-(3-(((5-chloropyridin-3-yl)methyl)amino)phenyl)-5,7-dihydrofuro[3,4-d]pyrimidin-4-amine]	501 to 1000 nM
Cc1cncc(CNc2cccc(-c3nc4c(c(Nc5ccc(-c6cn[nH]c6)cc5)n3)COC4)c2)c1 [Example 94, N-(4-(1H-pyrazol-4-yl)phenyl)-2-(3-(((5-methylpyridin-3-yl)methyl)amino)phenyl)-5,7-dihydrofuro[3,4-d]pyrimidin-4-amine]	501 to 1000 nM
CC(C)NC(=O)COc1cc(-c2nc3c(c(Nc4ccc(-c5cn[nH]c5)cc4)n2)COC3)ccc1F [Example 95, 2-(5-(4-((4-(1H-pyrazol-4-yl)phenyl)amino)-5,7-dihydrofuro[3,4-d]pyrimidin-2-yl)-2-fluorophenoxy)-N-isopropylacetamide]	> 1000 nM
CC(C)(C)NC(=O)COc1cc(-c2nc3c(c(Nc4ccc(-c5cn[nH]c5)cc4)n2)COC3)ccc1F [Example 96, 2-(5-(4-((4-(1H-pyrazol-4-yl)phenyl)amino)-5,7-dihydrofuro[3,4-d]pyrimidin-2-yl)-2-fluorophenoxy)-N-(tert-butyl)acetamide]	> 1000 nM
CCC(CC)NC(=O)COc1cc(-c2nc3c(c(Nc4ccc(-c5cn[nH]c5)cc4)n2)COC3)ccc1F [Example 97, 2-(5-(4-((4-(1H-pyrazol-4-yl)phenyl)amino)-5,7-dihydrofuro[3,4-d]pyrimidin-2-yl)-2-fluorophenoxy)-N-(pentan-3-yl)acetamide]	> 1000 nM
CC(C)NC(=O)COc1cccc(-c2nc3c(c(Nc4ccc(-c5cn[nH]c5)cc4)n2)COCC3)c1 [Example 102, 2-(3-(4-((4-(1H-pyrazol-4-yl)phenyl)amino)-7,8-dihydro-5H-pyrano[4,3-d]pyrimidin-2-yl)phenoxy)-N-isopropylacetamide]	10 to 100 nM
CCC(C)NC(=O)COc1cccc(-c2nc3c(c(Nc4ccc(-c5cn[nH]c5)cc4)n2)COCC3)c1 (stereo not shown) [Example 103, 2-(3-(4-((4-(1H-pyrazol-4-yl)phenyl)amino)-7,8-dihydro-5H-pyrano[4,3-d]pyrimidin-2-yl)phenoxy)-N-(sec-butyl)acetamide]	10 to 100 nM
CC(C)CNC(=O)COc1cccc(-c2nc3c(c(Nc4ccc(-c5cn[nH]c5)cc4)n2)COCC3)c1 [Example 104, 2-(3-(4-((4-(1H-pyrazol-4-yl)phenyl)amino)-7,8-dihydro-5H-pyrano[4,3-d]pyrimidin-2-yl)phenoxy)-N-isobutylacetamide]	10 to 100 nM
CC(C)(C)CNC(=O)COc1cccc(-c2nc3c(c(Nc4ccc(-c5cn[nH]c5)cc4)n2)COCC3)c1 [Example 105, 2-(3-(4-((4-(1H-pyrazol-4-yl)phenyl)amino)-7,8-dihydro-5H-pyrano[4,3-d]pyrimidin-2-yl)phenoxy)-N-neopentylacetamide]	10 to 100 nM
O=C(COc1cccc(-c2nc3c(c(Nc4ccc(-c5cn[nH]c5)cc4)n2)COCC3)c1)NC1CCCC1 [Example 108, 2-(3-(4-((4-(1H-pyrazol-4-yl)phenyl)amino)-7,8-dihydro-5H-pyrano[4,3-d]pyrimidin-2-yl)phenoxy)-N-cyclopentylacetamide]	10 to 100 nM
O=C(COc1cccc(-c2nc3c(c(Nc4ccc(-c5cn[nH]c5)cc4)n2)COCC3)c1)NC1CCC1 [Example 109, 2-(3-(4-((4-(1H-pyrazol-4-yl)phenyl)amino)-7,8-dihydro-5H-pyrano[4,3-d]pyrimidin-2-yl)phenoxy)-N-cyclobutylacetamide]	10 to 100 nM
CC(C)(C)NC(=O)COc1cccc(-c2nc(Nc3ccc(-c4cn[nH]c4)cc3)c3sccc3n2)c1 [Example 110, 2-(3-(4-((4-(1H-pyrazol-4-yl)phenyl)amino)thieno[3,2-d]pyrimidin-2-yl)phenoxy)-N-(tert-butyl)acetamide]	101 to 250 nM
CCC(C)(C)NC(=O)COc1cccc(-c2nc(Nc3ccc(-c4cn[nH]c4)cc3)c3sccc3n2)c1 [Example 111, 2-(3-(4-((4-(1H-pyrazol-4-yl)phenyl)amino)thieno[3,2-d]pyrimidin-2-yl)phenoxy)-N-(tert-pentyl)acetamide]	101 to 250 nM
CC(=O)N1CCc2nc(-c3cccc(OCC(=O)NC(C)C)c3)nc(Nc3ccc(-c4cn[nH]c4)cc3)c2C1 [Example 112, 2-(3-(4-((4-(1H-pyrazol-4-yl)phenyl)amino)-6-acetyl-5,6,7,8-tetrahydropyrido[4,3-d]pyrimidin-2-yl)phenoxy)-N-isopropylacetamide]	101 to 250 nM
CCC(CC)NC(=O)COc1cccc(-c2nc3c(c(Nc4ccc(-c5cn[nH]c5)cc4)n2)CN(C(C)=O)CC3)c1 [Example 113, 2-(3-(4-((4-(1H-pyrazol-4-yl)phenyl)amino)-6-acetyl-5,6,7,8-tetrahydropyrido[4,3-d]pyrimidin-2-yl)phenoxy)-N-(pentan-3-yl)acetamide]	10 to 100 nM
CC(=O)N1CCc2nc(-c3cccc(OCC(=O)NC(C)(C)C)c3)nc(Nc3ccc(-c4cn[nH]c4)cc3)c2C1 [Example 114, 2-(3-(4-((4-(1H-pyrazol-4-yl)phenyl)amino)-6-acetyl-5,6,7,8-tetrahydropyrido[4,3-d]pyrimidin-2-yl)phenoxy)-N-(tert-butyl)acetamide]	10 to 100 nM
CCC(CC)NC(=O)COc1cccc(-c2nc3c(c(Nc4ccc(-c5cn[nH]c5)cc4)n2)CN(CC)CC3)c1 [Example 118, 2-(3-(4-((4-(1H-pyrazol-4-yl)phenyl)amino)-6-ethyl-5,6,7,8-tetrahydropyrido[4,3-d]pyrimidin-2-yl)phenoxy)-N-(pentan-3-yl)acetamide]	501 to 1000 nM
